Data reported in publication PMC5513037, “Examining the influence of specificity ligands and ATP-competitive ligands on the overall effectiveness of bivalent kinase inhibitors” (Proteome Science, 2017).

Columns and labels:
Test in all cases: KAM-matrix competition in K562 lysate;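 for 0.001 uM KAM: median log10 fold change of treatment over DMSO control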;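 for 0.01 uM KAM: median log10 fold change of treatment over DMSO control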;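 for 0.1 uM KAM: median log10 fold change of treatment over DMSO control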;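 for 1 uM KAM: median log10 fold change of treatment over DMSO control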;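 for 10 uM KAM: median log10 fold change of treatment over DMSO control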
Assay type in all cases: binding
MAST4 = biological target: T1, MAST4 (Homo sapiens, UniProt O15021)
T1 construct: endogenous in cells; host or cells: K562
Method: (§1) Supplement 12953_2017_125_MOESM1_ESM.zip/MS_Supp Info.xlsx, sheet "KAM" | column: 10 uM KAM; 1 uM KAM; 0.1 uM KAM; 0.01 uM KAM; 0.001 uM KAM; RB50

MAP3K6 = biological target: T2, MAP3K6 (Homo sapiens, UniProt O95382)
T2 construct: endogenous in cells; host or cells: K562
T2 sequence (O95382 1-1288): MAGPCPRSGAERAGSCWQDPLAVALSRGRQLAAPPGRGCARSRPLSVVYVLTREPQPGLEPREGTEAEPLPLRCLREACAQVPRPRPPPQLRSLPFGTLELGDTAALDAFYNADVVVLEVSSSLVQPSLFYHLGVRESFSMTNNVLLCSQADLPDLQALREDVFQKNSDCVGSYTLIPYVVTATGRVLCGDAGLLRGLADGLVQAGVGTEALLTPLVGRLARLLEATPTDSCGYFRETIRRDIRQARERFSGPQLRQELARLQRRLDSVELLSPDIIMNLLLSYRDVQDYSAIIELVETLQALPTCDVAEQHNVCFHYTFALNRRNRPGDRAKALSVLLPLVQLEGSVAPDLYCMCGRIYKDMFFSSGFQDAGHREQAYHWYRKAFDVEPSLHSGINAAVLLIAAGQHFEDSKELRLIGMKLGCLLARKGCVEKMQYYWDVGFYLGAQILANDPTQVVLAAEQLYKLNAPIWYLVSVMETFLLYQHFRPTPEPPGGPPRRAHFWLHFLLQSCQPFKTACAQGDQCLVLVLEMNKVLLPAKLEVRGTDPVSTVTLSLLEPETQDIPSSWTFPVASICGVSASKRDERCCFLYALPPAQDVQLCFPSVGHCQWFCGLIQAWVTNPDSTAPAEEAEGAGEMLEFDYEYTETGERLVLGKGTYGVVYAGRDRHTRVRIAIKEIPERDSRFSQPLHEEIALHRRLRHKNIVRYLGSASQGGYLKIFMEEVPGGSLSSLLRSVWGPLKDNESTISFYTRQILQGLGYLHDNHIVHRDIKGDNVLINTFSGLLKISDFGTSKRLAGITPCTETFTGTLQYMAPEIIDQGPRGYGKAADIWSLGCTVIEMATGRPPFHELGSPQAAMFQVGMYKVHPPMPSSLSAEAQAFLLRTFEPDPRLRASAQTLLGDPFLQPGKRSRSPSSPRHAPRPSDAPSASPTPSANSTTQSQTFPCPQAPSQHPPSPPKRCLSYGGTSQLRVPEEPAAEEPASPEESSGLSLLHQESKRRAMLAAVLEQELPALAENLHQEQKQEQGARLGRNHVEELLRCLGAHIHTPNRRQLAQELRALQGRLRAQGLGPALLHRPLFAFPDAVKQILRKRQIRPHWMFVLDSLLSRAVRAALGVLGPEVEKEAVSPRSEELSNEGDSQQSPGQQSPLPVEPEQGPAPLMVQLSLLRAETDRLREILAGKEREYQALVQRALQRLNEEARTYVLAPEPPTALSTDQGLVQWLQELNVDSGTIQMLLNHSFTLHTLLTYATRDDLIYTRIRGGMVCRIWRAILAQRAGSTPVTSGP
Method: as §1

CAMK2D = biological target: T3, CAMK2D (Homo sapiens, UniProt Q13557);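 for 0.001 uM KAM: median log10 fold change of treatment over DMSO control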;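 for 0.01 uM KAM: median log10 fold change of treatment over DMSO control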;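 for 0.1 uM KAM: median log10 fold change of treatment over DMSO control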;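 for 1 uM KAM: median log10 fold change of treatment over DMSO control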;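 for 10 uM KAM: median log10 fold change of treatment over DMSO control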
T3 construct: endogenous in cells; host or cells: K562
Method: as §1

CDK14 = biological target: T4, CDK14 (Homo sapiens, UniProt O94921)
T4 construct: endogenous in cells; host or cells: K562
Method: as §1

MAPK9 = biological target: T5, MAPK9 (Homo sapiens, UniProt P45984)
T5 construct: endogenous in cells; host or cells: K562
Method: as §1

BUB1B = biological target: T6, BUB1B (Homo sapiens, UniProt O60566);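 for 0.001 uM KAM: median log10 fold change of treatment over DMSO control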;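 for 0.01 uM KAM: median log10 fold change of treatment over DMSO control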;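 for 0.1 uM KAM: median log10 fold change of treatment over DMSO control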;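 for 1 uM KAM: median log10 fold change of treatment over DMSO control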;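 for 10 uM KAM: median log10 fold change of treatment over DMSO control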
T6 construct: endogenous in cells; host or cells: K562
Method: as §1

LIMK2 = biological target: T7, LIMK2 (Homo sapiens, UniProt P53671);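 for 0.001 uM KAM: median log10 fold change of treatment over DMSO control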;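 for 0.01 uM KAM: median log10 fold change of treatment over DMSO control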;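 for 0.1 uM KAM: median log10 fold change of treatment over DMSO control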;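 for 1 uM KAM: median log10 fold change of treatment over DMSO control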;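 for 10 uM KAM: median log10 fold change of treatment over DMSO control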
T7 construct: endogenous in cells; host or cells: K562
Method: as §1

[1] = read-out: RB50 (the source's name)
[2] = KAM 0.001-10 uM, read-out: RB50 (the source's name)

T3 sequence (Q13557 whole entry): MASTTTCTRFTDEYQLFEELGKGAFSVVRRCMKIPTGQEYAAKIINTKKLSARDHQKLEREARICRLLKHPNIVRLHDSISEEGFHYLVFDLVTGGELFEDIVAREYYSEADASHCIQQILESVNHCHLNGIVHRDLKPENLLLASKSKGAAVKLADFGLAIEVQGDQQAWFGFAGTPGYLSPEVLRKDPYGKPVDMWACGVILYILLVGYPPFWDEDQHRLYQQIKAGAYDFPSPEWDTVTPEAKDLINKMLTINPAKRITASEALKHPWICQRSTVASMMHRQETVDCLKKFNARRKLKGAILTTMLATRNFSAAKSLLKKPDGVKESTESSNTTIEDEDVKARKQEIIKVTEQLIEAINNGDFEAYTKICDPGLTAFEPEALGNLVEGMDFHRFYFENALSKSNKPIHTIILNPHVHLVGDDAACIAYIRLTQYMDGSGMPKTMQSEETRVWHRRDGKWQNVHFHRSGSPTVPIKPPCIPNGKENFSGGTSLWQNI
T6 sequence (O60566 whole entry): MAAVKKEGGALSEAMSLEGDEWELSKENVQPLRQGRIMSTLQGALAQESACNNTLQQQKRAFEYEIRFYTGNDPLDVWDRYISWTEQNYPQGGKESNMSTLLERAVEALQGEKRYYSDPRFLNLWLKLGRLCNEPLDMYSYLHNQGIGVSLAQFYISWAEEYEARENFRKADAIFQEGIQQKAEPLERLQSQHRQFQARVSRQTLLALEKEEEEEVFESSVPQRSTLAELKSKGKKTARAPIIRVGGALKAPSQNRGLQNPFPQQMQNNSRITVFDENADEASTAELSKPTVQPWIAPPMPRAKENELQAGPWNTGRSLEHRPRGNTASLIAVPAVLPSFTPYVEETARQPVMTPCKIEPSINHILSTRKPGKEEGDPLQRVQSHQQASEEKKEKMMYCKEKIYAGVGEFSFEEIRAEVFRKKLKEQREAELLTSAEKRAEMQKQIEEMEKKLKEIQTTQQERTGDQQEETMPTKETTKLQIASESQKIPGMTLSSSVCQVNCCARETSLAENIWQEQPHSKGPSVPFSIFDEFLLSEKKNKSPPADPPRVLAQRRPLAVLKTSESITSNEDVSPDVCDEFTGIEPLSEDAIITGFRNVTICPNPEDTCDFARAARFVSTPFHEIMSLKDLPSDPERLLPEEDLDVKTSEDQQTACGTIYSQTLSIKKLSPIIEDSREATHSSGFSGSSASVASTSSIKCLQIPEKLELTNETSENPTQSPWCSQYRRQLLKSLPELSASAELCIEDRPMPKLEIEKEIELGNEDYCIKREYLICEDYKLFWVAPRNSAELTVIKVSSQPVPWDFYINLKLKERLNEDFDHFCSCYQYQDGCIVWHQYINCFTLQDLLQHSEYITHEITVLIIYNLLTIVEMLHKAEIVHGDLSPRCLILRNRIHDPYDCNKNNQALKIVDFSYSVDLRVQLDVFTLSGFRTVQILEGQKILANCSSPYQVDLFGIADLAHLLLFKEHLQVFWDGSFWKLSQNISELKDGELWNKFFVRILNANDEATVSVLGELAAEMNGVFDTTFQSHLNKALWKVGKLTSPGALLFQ
T7 sequence (P53671 whole entry): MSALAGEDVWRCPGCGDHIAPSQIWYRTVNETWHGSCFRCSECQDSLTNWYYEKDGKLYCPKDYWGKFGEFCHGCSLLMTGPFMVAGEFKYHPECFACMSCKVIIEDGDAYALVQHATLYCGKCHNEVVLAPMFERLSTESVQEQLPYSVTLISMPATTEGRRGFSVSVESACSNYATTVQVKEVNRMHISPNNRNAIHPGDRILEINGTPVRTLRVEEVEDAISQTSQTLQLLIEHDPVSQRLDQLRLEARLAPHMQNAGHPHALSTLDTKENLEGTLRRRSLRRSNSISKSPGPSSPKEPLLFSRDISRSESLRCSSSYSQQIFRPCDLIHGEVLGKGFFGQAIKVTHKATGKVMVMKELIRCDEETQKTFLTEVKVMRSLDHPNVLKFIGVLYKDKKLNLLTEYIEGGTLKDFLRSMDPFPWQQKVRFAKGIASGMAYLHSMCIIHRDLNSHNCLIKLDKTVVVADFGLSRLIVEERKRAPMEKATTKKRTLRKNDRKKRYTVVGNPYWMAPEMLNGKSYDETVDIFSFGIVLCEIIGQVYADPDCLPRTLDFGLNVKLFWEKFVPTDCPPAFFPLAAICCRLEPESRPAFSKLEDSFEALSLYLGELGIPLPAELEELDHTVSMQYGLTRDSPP
T4 sequence (O94921 whole entry): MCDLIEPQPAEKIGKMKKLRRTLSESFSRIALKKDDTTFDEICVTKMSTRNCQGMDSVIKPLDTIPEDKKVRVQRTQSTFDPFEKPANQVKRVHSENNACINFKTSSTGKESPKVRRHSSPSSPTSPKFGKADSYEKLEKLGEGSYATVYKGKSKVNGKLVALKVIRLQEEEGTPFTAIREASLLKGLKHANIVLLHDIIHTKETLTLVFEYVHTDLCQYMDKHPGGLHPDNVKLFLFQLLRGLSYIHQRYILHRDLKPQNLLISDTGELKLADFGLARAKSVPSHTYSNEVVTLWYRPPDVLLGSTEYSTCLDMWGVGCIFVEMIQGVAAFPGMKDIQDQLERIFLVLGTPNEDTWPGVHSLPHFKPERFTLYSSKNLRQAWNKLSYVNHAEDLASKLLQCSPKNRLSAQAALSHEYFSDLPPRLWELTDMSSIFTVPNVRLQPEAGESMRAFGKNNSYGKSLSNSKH
T5 sequence (P45984 whole entry): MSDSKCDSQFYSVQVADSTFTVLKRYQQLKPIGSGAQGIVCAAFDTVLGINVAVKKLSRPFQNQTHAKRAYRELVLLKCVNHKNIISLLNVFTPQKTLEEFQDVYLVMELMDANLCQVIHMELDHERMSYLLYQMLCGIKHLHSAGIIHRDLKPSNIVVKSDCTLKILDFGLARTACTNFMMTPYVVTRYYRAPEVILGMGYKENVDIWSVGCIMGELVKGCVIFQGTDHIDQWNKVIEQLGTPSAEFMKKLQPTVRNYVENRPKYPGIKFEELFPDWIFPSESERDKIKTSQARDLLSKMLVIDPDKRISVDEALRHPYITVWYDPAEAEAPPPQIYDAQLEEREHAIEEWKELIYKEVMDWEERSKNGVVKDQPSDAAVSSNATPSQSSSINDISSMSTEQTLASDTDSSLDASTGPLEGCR

Structure (SMILES): N#CCc1ccc(Nc2nc(NCCCN)cc(Nc3cc(C4CC4)[nH]n3)n2)cc1 [KAM]
- median Log10 fold change (MAST4; 0.001 uM KAM): -0.03696
- median Log10 fold change (MAST4; 0.01 uM KAM): 0.002822
- median Log10 fold change (MAST4; 0.1 uM KAM): -0.135
- median Log10 fold change (MAST4; 1 uM KAM): -0.3289
- median Log10 fold change (MAST4; 10 uM KAM): -0.3337
- IC50 (MAST4; [1]): 1260 nM
- median Log10 fold change (MAP3K6; 0.001 uM KAM): -0.04109
- median Log10 fold change (MAP3K6; 0.01 uM KAM): -0.01116
- median Log10 fold change (MAP3K6; 0.1 uM KAM): -0.09429
- median Log10 fold change (MAP3K6; 1 uM KAM): -0.1699
- median Log10 fold change (MAP3K6; 10 uM KAM): -0.3363
- IC50 (MAP3K6; [1]): 5370 nM
- IC50 (CAMK2D; [2]): > 10000 nM
- 0.001 uM KAM (CAMK2D; relative to 0 uM KAM = 0): -0.03504
- 0.01 uM KAM (CAMK2D; relative to 0 uM KAM = 0): 0.05262
- 0.1 uM KAM (CAMK2D; relative to 0 uM KAM = 0): 0.01424
- 1 uM KAM (CAMK2D; relative to 0 uM KAM = 0): -0.07545
- 10 uM KAM (CAMK2D; relative to 0 uM KAM = 0): -0.201
- median Log10 fold change (CDK14; 0.001 uM KAM): 0.09538
- median Log10 fold change (CDK14; 0.01 uM KAM): 0.03255
- median Log10 fold change (CDK14; 0.1 uM KAM): -0.148
- median Log10 fold change (CDK14; 1 uM KAM): -0.2642
- median Log10 fold change (CDK14; 10 uM KAM): -0.4049
- IC50 (CDK14; [1]): 1660 nM
- median Log10 fold change (MAPK9; 0.001 uM KAM): -0.01416
- median Log10 fold change (MAPK9; 0.01 uM KAM): -0.02342
- median Log10 fold change (MAPK9; 0.1 uM KAM): -0.0954
- median Log10 fold change (MAPK9; 1 uM KAM): -0.2518
- median Log10 fold change (MAPK9; 10 uM KAM): -0.4014
- IC50 (MAPK9; [1]): 2070 nM
- IC50 (BUB1B; [2]): > 10000 nM
- 0.001 uM KAM (BUB1B; relative to 0 uM KAM = 0): -0.0187
- 0.01 uM KAM (BUB1B; relative to 0 uM KAM = 0): -0.008778
- 0.1 uM KAM (BUB1B; relative to 0 uM KAM = 0): -0.0591
- 1 uM KAM (BUB1B; relative to 0 uM KAM = 0): -0.007813
- 10 uM KAM (BUB1B; relative to 0 uM KAM = 0): -0.008689
- IC50 (LIMK2; [2]): > 10000 nM
- 0.001 uM KAM (LIMK2; relative to 0 uM KAM = 0): -0.04927
- 0.01 uM KAM (LIMK2; relative to 0 uM KAM = 0): -0.08611
- 0.1 uM KAM (LIMK2; relative to 0 uM KAM = 0): -0.1176
- 1 uM KAM (LIMK2; relative to 0 uM KAM = 0): -0.1595
- 10 uM KAM (LIMK2; relative to 0 uM KAM = 0): 0.03187
